{"source": "patent US9889113B2", "about": "“Method for reversing, preventing, delaying or stabilizing soft tissue calcification” (Panion & BF Biotech, Inc., priority 2006, dated 2018)", "type_in_all_cases": "in vivo, human", "key": {"[1]": {"tested_on": "patients with end stage renal disease (ESRD) on hemodialysis", "assay": "Randomized, double-blind, placebo-controlled, dose-ranging study of ferric citrate on serum phosphate, Ca and Ca×PO4", "details": "for Serum [Ca] (mg/dL) at Day 0 / Serum [PO4] (mg/dL) at Day 0 / [Ca] * [PO4] (mg/dL)^2 at Day 0: Day 0 baseline; for Serum Ca (mg/dL): Linear Regression: N.S.: Not Significant", "excerpt": "Objectives: (1) To determine the effect of ferric citrate at doses of 2, 4 and 6 g daily, administered TID (three times a day), for 28 days on serum phosphate (PO4) levels in patients with end stage renal disease (ESRD). (2) To evaluate the safety of ferric citrate at doses of 2, 4, 6 g daily, administered TID, for 28 days in patients with ESRD.\nStudy Design: Randomized, double-blind, placebo-controlled, dose-ranging study to assess the effect of ferric citrate on serum phosphate concentrations in patients with ESRD on hemodialysis. Patients are assessed at Study Days 14 and 28 for effectiveness as measured by serum phosphate concentrations. Patients who received one or more doses of study medication are also assessed for safety.\nStudy Duration: 8 weeks (including the screening period, 2 weeks washout, 4 weeks treatment)\nFerric citrate is administered orally, and is given equally three times a day."}, "[2]": {"tested_on": "patients with end stage renal disease (ESRD)", "assay": "Serum creatinine level in the open-label extension of the Phase II study", "details": "several patients who received 6 g/day", "excerpt": "Glomerular filtration rate (GFR) level correlates with structural kidney damage and is used as a golden standard to measure kidney function. GFR can be estimated by the biomarkers serum creatinine. As renal function deteriorates, kidney lost its function to excrete creatinine effectively and lead to creatinine retention in the body. Therefore, increase of serum creatinine indicates lowering GFR and is an important sign of kidney deterioration.\nIn an open-label extension of a Phase II clinical study: “randomized, double-blind, placebo-controlled, dose-ranging study of the effects of ferric citrate on serum phosphate in patients with end stage renal disease (ESRD)”, some of the patients were administered 2-6 g/day of ferric citrate and serum creatinine level was monitored to assess kidney function."}, "[3]": {"tested_on": "patients with end stage renal disease (ESRD) on hemodialysis", "assay": "Randomized, double-blind, placebo-controlled, dose-ranging study of ferric citrate on serum phosphate, Ca and Ca×PO4", "details": "Day 28; 2, 4, 6 g/day TID vs placebo"}, "[4]": {"details": "0, 2, 4 and 6 gm/day, TID immediately after meals"}, "[5]": {"details": "6 g/day (N = 32), Day 28, *P < 0.05 baseline change vs placebo"}, "[6]": {"details": "Day 14, 2, 4, 6 g/day TID vs placebo"}, "[7]": {"details": "Day 28, 2, 4, 6 g/day TID vs placebo"}}}
{"smiles": "O=C([O-])CC(O)(CC(=O)[O-])C(=O)[O-].[Fe+3]", "note": "[ferric citrate]", "values": [{"measurement": "Ca*PO4", "setting": "[1]; [4]", "value": "decrease"}, {"measurement": "serum PO4", "setting": "[1]; [4]", "value": "decrease"}, {"measurement": "Serum [Ca] (mg/dL) at Day 0", "setting": "[1]; 2 g/day (N = 31)", "value": 8.78, "unit": "mg/dL"}, {"measurement": "Serum [PO4] (mg/dL) at Day 0", "setting": "[1]; 2 g/day (N = 31)", "value": 7.2, "unit": "mg/dL"}, {"measurement": "[Ca] * [PO4] (mg/dL)^2 at Day 0", "setting": "[1]; 2 g/day (N = 31)", "value": "62.9 (mg/dL)^2"}, {"measurement": "Serum [Ca] (mg/dL) at Day 14", "setting": "[1]; 2 g/day (N = 31), Day 14", "value": 9.01, "unit": "mg/dL"}, {"measurement": "Serum [PO4] (mg/dL) at Day 14", "setting": "[1]; 2 g/day (N = 31), Day 14", "value": 6.7, "unit": "mg/dL"}, {"measurement": "[Ca] * [PO4] (mg/dL)^2 at Day 14", "setting": "[1]; 2 g/day (N = 31), Day 14", "value": "60.3 (mg/dL)^2"}, {"measurement": "Serum [Ca] (mg/dL) at Day 28", "setting": "[1]; 2 g/day (N = 31), Day 28", "value": 9.00, "unit": "mg/dL"}, {"measurement": "Serum [PO4] (mg/dL) at Day 28", "setting": "[1]; 2 g/day (N = 31), Day 28", "value": 6.9, "unit": "mg/dL"}, {"measurement": "[Ca] * [PO4] (mg/dL)^2 at Day 28", "setting": "[1]; 2 g/day (N = 31), Day 28", "value": "61.7 (mg/dL)^2"}, {"measurement": "Serum [Ca] (mg/dL) at Day 0", "setting": "[1]; 4 g/day (N = 32)", "value": 9.02, "unit": "mg/dL"}, {"measurement": "Serum [PO4] (mg/dL) at Day 0", "setting": "[1]; 4 g/day (N = 32)", "value": 7.1, "unit": "mg/dL"}, {"measurement": "[Ca] * [PO4] (mg/dL)^2 at Day 0", "setting": "[1]; 4 g/day (N = 32)", "value": "63.5 (mg/dL)^2"}, {"measurement": "Serum [Ca] (mg/dL) at Day 14", "setting": "[1]; 4 g/day (N = 32), Day 14", "value": 9.47, "unit": "mg/dL"}, {"measurement": "Serum [PO4] (mg/dL) at Day 14", "setting": "[1]; 4 g/day (N = 32), Day 14", "value": 6.4, "unit": "mg/dL"}, {"measurement": "[Ca] * [PO4] (mg/dL)^2 at Day 14", "setting": "[1]; 4 g/day (N = 32), Day 14", "value": "59.9 (mg/dL)^2"}, {"measurement": "Serum [Ca] (mg/dL) at Day 28", "setting": "[1]; 4 g/day (N = 32), Day 28", "value": 9.29, "unit": "mg/dL"}, {"measurement": "Serum [PO4] (mg/dL) at Day 28", "setting": "[1]; 4 g/day (N = 32), Day 28", "value": 6.0, "unit": "mg/dL"}, {"measurement": "[Ca] * [PO4] (mg/dL)^2 at Day 28", "setting": "[1]; 4 g/day (N = 32), Day 28", "value": "55.4 (mg/dL)^2"}, {"measurement": "Serum [Ca] (mg/dL) at Day 0", "setting": "[1]; 6 g/day (N = 32)", "value": 8.99, "unit": "mg/dL"}, {"measurement": "Serum [PO4] (mg/dL) at Day 0", "setting": "[1]; 6 g/day (N = 32)", "value": 7.3, "unit": "mg/dL"}, {"measurement": "[Ca] * [PO4] (mg/dL)^2 at Day 0", "setting": "[1]; 6 g/day (N = 32)", "value": "65.8 (mg/dL)^2"}, {"measurement": "Serum [Ca] (mg/dL) at Day 14", "setting": "[1]; 6 g/day (N = 32), Day 14", "value": 9.13, "unit": "mg/dL"}, {"measurement": "Serum [PO4] (mg/dL) at Day 14", "setting": "[1]; 6 g/day (N = 32), Day 14", "value": 6.3, "unit": "mg/dL"}, {"measurement": "[Ca] * [PO4] (mg/dL)^2 at Day 14", "setting": "[1]; 6 g/day (N = 32), Day 14", "value": "57.5 (mg/dL)^2"}, {"measurement": "Serum [Ca] (mg/dL) at Day 28", "setting": "[1]; 6 g/day (N = 32), Day 28", "value": 9.26, "unit": "mg/dL"}, {"measurement": "Serum [PO4] (mg/dL) at Day 28", "setting": "[1]; [5]", "value": 5.8, "unit": "mg/dL"}, {"measurement": "[Ca] * [PO4] (mg/dL)^2 at Day 28", "setting": "[1]; [5]", "value": "54.1 (mg/dL)^2"}, {"measurement": "Ca*P04 levels", "setting": "[1]; 6 gm/day dose at both 14 and 28 days", "value": "have decreased and were statistically significant"}, {"measurement": "Serum Ca (mg/dL): Dose Response", "setting": "[1]; Day 0", "value": "No"}, {"measurement": "Ca × PO4 (mg/dL)^2: Dose Response", "setting": "[1]; [6]", "value": "Yes"}, {"measurement": "Ca × PO4 (mg/dL)^2: Linear Regression P", "setting": "[1]; [6]", "value": "P = 0.0401"}, {"measurement": "Ca × PO4 (mg/dL)^2: Statistical Significant", "setting": "[1]; [6]", "value": "No"}, {"measurement": "Serum Ca (mg/dL): Dose Response", "setting": "[1]; [6]", "value": "No"}, {"measurement": "Serum Ca (mg/dL): Statistical Significant", "setting": "[1]; [6]", "value": "No"}, {"measurement": "Serum PO4 (mg/dL): Dose Response", "setting": "[1]; [6]", "value": "No"}, {"measurement": "Serum PO4 (mg/dL): Statistical Significant", "setting": "[1]; [6]", "value": "No"}, {"measurement": "Serum Ca (mg/dL): Linear Regression", "setting": "[1]; Day 14", "value": "N.S."}, {"measurement": "Ca × PO4 (mg/dL)^2: Dose Response", "setting": "[1]; [7]", "value": "Yes"}, {"measurement": "Serum Ca (mg/dL): Dose Response", "setting": "[1]; [7]", "value": "No"}, {"measurement": "Serum Ca (mg/dL): Statistical Significant", "setting": "[1]; [7]", "value": "No"}, {"measurement": "Serum PO4 (mg/dL): Dose Response", "setting": "[1]; [7]", "value": "Yes"}, {"measurement": "Serum PO4 (mg/dL): Linear Regression P", "setting": "[1]; [7]", "value": "P = 0.0073"}, {"measurement": "Serum PO4 (mg/dL): Statistical Significant", "setting": "[1]; [7]", "value": "Yes (6 g/day)"}, {"measurement": "[Ca] * [PO4] (mg/dL)^2: Dose Response", "setting": "[1]; Day 28, 2, 4, 6 g/day vs placebo", "value": "Yes"}, {"measurement": "Serum Ca (mg/dL): Linear Regression", "setting": "[1]; Day 28", "value": "N.S."}, {"measurement": "Ca × PO4 (mg/dL)^2: Statistical Significant", "setting": "[1]; Day 78, 2, 4, 6 g/day TID vs placebo", "value": "Yes (6 g/day)"}, {"measurement": "serum Ca×P", "setting": "[1]; Phase II study", "value": "decrease serum Ca×P in a dose-dependent manner"}, {"measurement": "change in serum calcium level", "setting": "[1]; during the 28 days, 2, 4, and 6 gm/day", "value": "No significant change"}, {"measurement": "ability to lower serum phosphate levels", "setting": "[1]; patients with ESRD", "value": "demonstrated"}, {"measurement": "serum creatinine level", "setting": "[2]", "value": "trend of decreased serum creatinine level"}, {"measurement": "Ca × PO4 (mg/dL)^2: Linear Regression P", "setting": "[3]", "value": "P = 0.0158"}]}
